From ChEMBL document CHEMBL1139296, “Pleuromutilin derivatives having a purine ring. Part 2: influence of the central spacer on the antibacterial activity against Gram-positive pathogens” (2009)

Tested on: Streptococcus pyogenes
Experiment: Antimicrobial activity against Streptococcus pyogenes […] by NCCLS method
Format: functional

Compared with `C=C[C@]1(C)C[C@@H](OC(=O)CSCCN(C)C(=O)CCn2cnc3c(N4CCC(N)C4)ncnc32)[C@]2(C)[C@H](C)CC[C@]3(CCC(=O)[C@@H]32)[C@@H](C)[C@@H]1O.Cl` (stereo partly specified), `C=C[C@]1(C)C[C@@H](OC(=O)CSCCCN(C)C(=O)CCn2cnc3c(N4CCC(N)C4)ncnc32)[C@]2(C)[C@H](C)CC[C@]3(CCC(=O)[C@@H]32)[C@@H](C)[C@@H]1O.Cl` (stereo partly specified) is higher in MIC: ≤ 0.004 µg/mL for the first, 0.008 µg/mL for the second.

Compared with `C=C[C@]1(C)C[C@@H](OC(=O)CNC2CCN(C(=O)CCn3cnc4c(N5CCC(N)C5)ncnc43)CC2)[C@]2(C)[C@H](C)CC[C@]3(CCC(=O)[C@@H]32)[C@@H](C)[C@@H]1O.Cl` (stereo partly specified), `CC[C@]1(C)C[C@@H](OC(=O)COC2CCN(C(=O)CCn3cnc4c(N5CCC(N)C5)ncnc43)CC2)[C@]2(C)[C@H](C)CC[C@]3(CCC(=O)[C@@H]32)[C@@H](C)[C@@H]1O.Cl` (stereo partly specified) is 2-fold lower in MIC: 0.063 µg/mL for the first, 0.032 µg/mL for the second.

Tested on: Streptococcus pneumoniae
Experiment: Antimicrobial activity against penicillin-resistant Streptococcus pneumoniae KT2524 by NCCLS method
Format: functional

In order of falling MIC:
1. C=C[C@]1(C)C[C@@H](OC(=O)CNC2CCN(C(=O)CCn3cnc4c(N5CCC(N)C5)ncnc43)CC2)[C@]2(C)[C@H](C)CC[C@]3(CCC(=O)[C@@H]32)[C@@H](C)[C@@H]1O.Cl (stereo partly specified)  0.125 µg/mL
2. CC[C@]1(C)C[C@@H](OC(=O)COC2CCN(C(=O)CCn3cnc4c(N5CCC(N)C5)ncnc43)CC2)[C@]2(C)[C@H](C)CC[C@]3(CCC(=O)[C@@H]32)[C@@H](C)[C@@H]1O.Cl (stereo partly specified)  0.063 µg/mL
3. C=C[C@]1(C)C[C@@H](OC(=O)CSCCN(C)C(=O)CCn2cnc3c(N4CCC(N)C4)ncnc32)[C@]2(C)[C@H](C)CC[C@]3(CCC(=O)[C@@H]32)[C@@H](C)[C@@H]1O.Cl (stereo partly specified)  0.016 µg/mL
4. C=C[C@]1(C)C[C@@H](OC(=O)CSCCCN(C)C(=O)CCn2cnc3c(N4CCC(N)C4)ncnc32)[C@]2(C)[C@H](C)CC[C@]3(CCC(=O)[C@@H]32)[C@@H](C)[C@@H]1O.Cl (stereo partly specified)  0.016 µg/mL

Tested on: Staphylococcus aureus
Experiment: Antimicrobial activity against methicillin-susceptible Staphylococcus aureus Smith by NCCLS method
Format: functional

In order of rising MIC:
1. C=C[C@]1(C)C[C@@H](OC(=O)CSCCCN(C)C(=O)CCn2cnc3c(N4CCC(N)C4)ncnc32)[C@]2(C)[C@H](C)CC[C@]3(CCC(=O)[C@@H]32)[C@@H](C)[C@@H]1O.Cl (stereo partly specified)  0.125 µg/mL
2. C=C[C@]1(C)C[C@@H](OC(=O)CSCCN(C)C(=O)CCn2cnc3c(N4CCC(N)C4)ncnc32)[C@]2(C)[C@H](C)CC[C@]3(CCC(=O)[C@@H]32)[C@@H](C)[C@@H]1O.Cl (stereo partly specified)  0.25 µg/mL
3. C=C[C@]1(C)C[C@@H](OC(=O)CNC2CCN(C(=O)CCn3cnc4c(N5CCC(N)C5)ncnc43)CC2)[C@]2(C)[C@H](C)CC[C@]3(CCC(=O)[C@@H]32)[C@@H](C)[C@@H]1O.Cl (stereo partly specified)  0.25 µg/mL
4. CC[C@]1(C)C[C@@H](OC(=O)COC2CCN(C(=O)CCn3cnc4c(N5CCC(N)C5)ncnc43)CC2)[C@]2(C)[C@H](C)CC[C@]3(CCC(=O)[C@@H]32)[C@@H](C)[C@@H]1O.Cl (stereo partly specified)  0.25 µg/mL

Tested on: Staphylococcus aureus
Experiment: Antimicrobial activity against methicillin-resistant Staphylococcus aureus KMP9
Format: functional

In order of falling MIC:
1. C=C[C@]1(C)C[C@@H](OC(=O)CNC2CCN(C(=O)CCn3cnc4c(N5CCC(N)C5)ncnc43)CC2)[C@]2(C)[C@H](C)CC[C@]3(CCC(=O)[C@@H]32)[C@@H](C)[C@@H]1O.Cl (stereo partly specified)  2 µg/mL
2. C=C[C@]1(C)C[C@@H](OC(=O)CSCCN(C)C(=O)CCn2cnc3c(N4CCC(N)C4)ncnc32)[C@]2(C)[C@H](C)CC[C@]3(CCC(=O)[C@@H]32)[C@@H](C)[C@@H]1O.Cl (stereo partly specified)  0.5 µg/mL
3. CC[C@]1(C)C[C@@H](OC(=O)COC2CCN(C(=O)CCn3cnc4c(N5CCC(N)C5)ncnc43)CC2)[C@]2(C)[C@H](C)CC[C@]3(CCC(=O)[C@@H]32)[C@@H](C)[C@@H]1O.Cl (stereo partly specified)  0.5 µg/mL
4. C=C[C@]1(C)C[C@@H](OC(=O)CSCCCN(C)C(=O)CCn2cnc3c(N4CCC(N)C4)ncnc32)[C@]2(C)[C@H](C)CC[C@]3(CCC(=O)[C@@H]32)[C@@H](C)[C@@H]1O.Cl (stereo partly specified)  0.25 µg/mL

Tested on: Streptococcus pneumoniae
Experiment: Antimicrobial activity against penicillin-susceptible Streptococcus pneumoniae ATCC 49619 by NCCLS method
Format: functional

In order of rising MIC:
1. C=C[C@]1(C)C[C@@H](OC(=O)CSCCN(C)C(=O)CCn2cnc3c(N4CCC(N)C4)ncnc32)[C@]2(C)[C@H](C)CC[C@]3(CCC(=O)[C@@H]32)[C@@H](C)[C@@H]1O.Cl (stereo partly specified)  0.016 µg/mL
2. C=C[C@]1(C)C[C@@H](OC(=O)CSCCCN(C)C(=O)CCn2cnc3c(N4CCC(N)C4)ncnc32)[C@]2(C)[C@H](C)CC[C@]3(CCC(=O)[C@@H]32)[C@@H](C)[C@@H]1O.Cl (stereo partly specified)  0.016 µg/mL
3. CC[C@]1(C)C[C@@H](OC(=O)COC2CCN(C(=O)CCn3cnc4c(N5CCC(N)C5)ncnc43)CC2)[C@]2(C)[C@H](C)CC[C@]3(CCC(=O)[C@@H]32)[C@@H](C)[C@@H]1O.Cl (stereo partly specified)  0.032 µg/mL
4. C=C[C@]1(C)C[C@@H](OC(=O)CNC2CCN(C(=O)CCn3cnc4c(N5CCC(N)C5)ncnc43)CC2)[C@]2(C)[C@H](C)CC[C@]3(CCC(=O)[C@@H]32)[C@@H](C)[C@@H]1O.Cl (stereo partly specified)  0.125 µg/mL

Tested on: Enterococcus faecium
Experiment: Antimicrobial activity against vancomycin-resistant Enterococcus faecium KU1778 by NCCLS method
Format: functional

In order of rising MIC:
1. C=C[C@]1(C)C[C@@H](OC(=O)CSCCN(C)C(=O)CCn2cnc3c(N4CCC(N)C4)ncnc32)[C@]2(C)[C@H](C)CC[C@]3(CCC(=O)[C@@H]32)[C@@H](C)[C@@H]1O.Cl (stereo partly specified)  0.063 µg/mL
2. C=C[C@]1(C)C[C@@H](OC(=O)CSCCCN(C)C(=O)CCn2cnc3c(N4CCC(N)C4)ncnc32)[C@]2(C)[C@H](C)CC[C@]3(CCC(=O)[C@@H]32)[C@@H](C)[C@@H]1O.Cl (stereo partly specified)  0.063 µg/mL
3. CC[C@]1(C)C[C@@H](OC(=O)COC2CCN(C(=O)CCn3cnc4c(N5CCC(N)C5)ncnc43)CC2)[C@]2(C)[C@H](C)CC[C@]3(CCC(=O)[C@@H]32)[C@@H](C)[C@@H]1O.Cl (stereo partly specified)  0.125 µg/mL
4. C=C[C@]1(C)C[C@@H](OC(=O)CNC2CCN(C(=O)CCn3cnc4c(N5CCC(N)C5)ncnc43)CC2)[C@]2(C)[C@H](C)CC[C@]3(CCC(=O)[C@@H]32)[C@@H](C)[C@@H]1O.Cl (stereo partly specified)  0.5 µg/mL

Tested on: Moraxella catarrhalis
Experiment: Antimicrobial activity against Moraxella catarrhalis K1209 by NCCLS method
Format: functional

In order of falling MIC:
1. C=C[C@]1(C)C[C@@H](OC(=O)CNC2CCN(C(=O)CCn3cnc4c(N5CCC(N)C5)ncnc43)CC2)[C@]2(C)[C@H](C)CC[C@]3(CCC(=O)[C@@H]32)[C@@H](C)[C@@H]1O.Cl (stereo partly specified)  0.25 µg/mL
2. C=C[C@]1(C)C[C@@H](OC(=O)CSCCN(C)C(=O)CCn2cnc3c(N4CCC(N)C4)ncnc32)[C@]2(C)[C@H](C)CC[C@]3(CCC(=O)[C@@H]32)[C@@H](C)[C@@H]1O.Cl (stereo partly specified)  0.125 µg/mL
3. CC[C@]1(C)C[C@@H](OC(=O)COC2CCN(C(=O)CCn3cnc4c(N5CCC(N)C5)ncnc43)CC2)[C@]2(C)[C@H](C)CC[C@]3(CCC(=O)[C@@H]32)[C@@H](C)[C@@H]1O.Cl (stereo partly specified)  0.125 µg/mL
4. C=C[C@]1(C)C[C@@H](OC(=O)CSCCCN(C)C(=O)CCn2cnc3c(N4CCC(N)C4)ncnc32)[C@]2(C)[C@H](C)CC[C@]3(CCC(=O)[C@@H]32)[C@@H](C)[C@@H]1O.Cl (stereo partly specified)  0.063 µg/mL

Tested on: Haemophilus influenzae
Experiment: Antimicrobial activity against Haemophilus influenzae TH13 by NCCLS method
Format: functional

In order of rising MIC:
1. C=C[C@]1(C)C[C@@H](OC(=O)CSCCCN(C)C(=O)CCn2cnc3c(N4CCC(N)C4)ncnc32)[C@]2(C)[C@H](C)CC[C@]3(CCC(=O)[C@@H]32)[C@@H](C)[C@@H]1O.Cl (stereo partly specified)  1 µg/mL
2. C=C[C@]1(C)C[C@@H](OC(=O)CSCCN(C)C(=O)CCn2cnc3c(N4CCC(N)C4)ncnc32)[C@]2(C)[C@H](C)CC[C@]3(CCC(=O)[C@@H]32)[C@@H](C)[C@@H]1O.Cl (stereo partly specified)  2 µg/mL
3. C=C[C@]1(C)C[C@@H](OC(=O)CNC2CCN(C(=O)CCn3cnc4c(N5CCC(N)C5)ncnc43)CC2)[C@]2(C)[C@H](C)CC[C@]3(CCC(=O)[C@@H]32)[C@@H](C)[C@@H]1O.Cl (stereo partly specified)  2 µg/mL
4. CC[C@]1(C)C[C@@H](OC(=O)COC2CCN(C(=O)CCn3cnc4c(N5CCC(N)C5)ncnc43)CC2)[C@]2(C)[C@H](C)CC[C@]3(CCC(=O)[C@@H]32)[C@@H](C)[C@@H]1O.Cl (stereo partly specified)  4 µg/mL

Tested on: Staphylococcus aureus
Experiment: Antimicrobial activity against methicillin-susceptible Staphylococcus aureus infected mouse assessed as survival rate administered iv after 1 hr of infection
Format: functional

In order of falling ED50:
1. CC[C@]1(C)C[C@@H](OC(=O)COC2CCN(C(=O)CCn3cnc4c(N5CCC(N)C5)ncnc43)CC2)[C@]2(C)[C@H](C)CC[C@]3(CCC(=O)[C@@H]32)[C@@H](C)[C@@H]1O.Cl (stereo partly specified)  2.04 mg/kg
2. C=C[C@]1(C)C[C@@H](OC(=O)CSCCN(C)C(=O)CCn2cnc3c(N4CCC(N)C4)ncnc32)[C@]2(C)[C@H](C)CC[C@]3(CCC(=O)[C@@H]32)[C@@H](C)[C@@H]1O.Cl (stereo partly specified)  1.76 mg/kg
3. C=C[C@]1(C)C[C@@H](OC(=O)CNC2CCN(C(=O)CCn3cnc4c(N5CCC(N)C5)ncnc43)CC2)[C@]2(C)[C@H](C)CC[C@]3(CCC(=O)[C@@H]32)[C@@H](C)[C@@H]1O.Cl (stereo partly specified)  1.75 mg/kg
4. C=C[C@]1(C)C[C@@H](OC(=O)CSCCCN(C)C(=O)CCn2cnc3c(N4CCC(N)C4)ncnc32)[C@]2(C)[C@H](C)CC[C@]3(CCC(=O)[C@@H]32)[C@@H](C)[C@@H]1O.Cl (stereo partly specified)  0.86 mg/kg
